According to paper PMC3255569 (Tuberculosis (Edinburgh, Scotland), 2009):
Structures can show the parent of a compound that is named as a salt.

Assays:
M. tuberculosis H37Rv [1] = assay type: cell-based; conditions: Mycobacterium tuberculosis; for MIC: read-out: approximate MIC of control drug
M. tuberculosis H37Rv [2] = experiment: M. tuberculosis H37Rv single-dose primary screen; assay type: cell-based, Mycobacterium tuberculosis; conditions: 10 μg/mL
M. tuberculosis H37Rv [3] = conditions: cited from earlier work

## NCC[C@H](O)C(=O)N[C@@H]1C[C@H](N)[C@@H](O[C@H]2O[C@H](CN)[C@@H](O)[C@H](O)[C@H]2O)[C@H](O)[C@H]1O[C@H]1O[C@H](CO)[C@@H](O)[C@H](N)[C@H]1O [amikacin, Amikacin sulfate]
M. tuberculosis H37Rv [1]
  MIC: ~0.13 mg/L
M. tuberculosis H37Rv [1]; run over the course of a five month period
  IC50: 0.09 ± 0.02 mg/L

## Cc1cccc(Nc2nc(-c3ccccc3)cs2)n1 [deaza analog of 1a, 4-phenyl-[2-(6-methyl-2-pyridyl)amino]thiazole]
M. tuberculosis H37Rv [2]
  % Inhibition, single-dose screen: 22%

## O=C1C(O)=C([C@H]2CC[C@H](c3ccc(Cl)cc3)CC2)C(=O)c2ccccc21 [Atovaquone]
M. tuberculosis H37Rv [3]; Prestwick Library data
  activity against M. tuberculosis (in words): modest activity

## CC[C@@H](CO)NCCN[C@@H](CC)CO [ethambutol]
M. tuberculosis H37Rv [1]
  MIC: ~0.5 mg/L

## CCc1cc(C(N)=S)ccn1 [ethionamide, 2-ethylthioisonicotinamide]
M. tuberculosis H37Rv [3]; in the TAACF screens
  TB IC90: > 100 mg/L
